In PubChem BioAssay (NCI):
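Briefly, cells in 96-well plates were exposed to five compound concentrations for 48 h, and endpoints were estimated by linear interpolation. Here, GI50 denotes the concentration required for 50% inhibition of growth. Definition used: TGI = concentration required for complete inhibition of growth.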

Tests used:
Experiment in all cases: NCI-60 cell line screen, 48 h
RXF 393 renal = system: RXF 393 renal
SK-OV-3 ovarian = system: SK-OV-3 ovarian
NCI-H226 lung = system: NCI-H226 lung
MALME-3M melanoma = system: MALME-3M melanoma
TK-10 renal = system: TK-10 renal
CAKI-1 renal = system: CAKI-1 renal
A498 renal = system: A498 renal
HL-60(TB) leukemia = system: HL-60(TB) leukemia
KM12 colon = system: KM12 colon
DU-145 prostate = system: DU-145 prostate

SMILES	GI50 (RXF 393 renal) [µM]	TGI (RXF 393 renal) [µM]	GI50 (SK-OV-3 ovarian) [µM]	TGI (SK-OV-3 ovarian) [µM]	GI50 (NCI-H226 lung) [µM]	TGI (NCI-H226 lung) [µM]	GI50 (MALME-3M melanoma) [µM]	TGI (MALME-3M melanoma) [µM]	GI50 (TK-10 renal) [µM]	TGI (TK-10 renal) [µM]	GI50 (CAKI-1 renal) [µM]	TGI (CAKI-1 renal) [µM]	GI50 (A498 renal) [µM]	TGI (A498 renal) [µM]	GI50 (HL-60(TB) leukemia) [µM]	TGI (HL-60(TB) leukemia) [µM]	GI50 (KM12 colon) [µM]	TGI (KM12 colon) [µM]	GI50 (DU-145 prostate) [µM]	TGI (DU-145 prostate) [µM]
Cc1ccc2c(c1)c1nc3cc(C)c(C)cc3nc1n2CCN(C)C	1.32	3.4	2.61	8.52	1.86	4.69	1.73	3.76	2.11	7.94	1.33	4.46	1.77	3.34	2.95	9.65	2.67	10.5	2.9	10.6
Cc1cc(NCCCNc2ccnc3cc(Cl)ccc23)nc(N2CCN(C)CC2)n1	1.35	4.99	7.66	45.6	3.39	22	2.12	4.47	6.51	29.9	3.12	11.2	14.4	28.3	2.99	9.06	3.97	17.1	5.5	17.9
Cn1cc(C2=C(c3cn(CCO)c4ccccc34)C(=O)NC2=O)c2ccccc21	3.22	9.54	2.61	> 21.9	4.76	> 19.6	6.9	17.5	4.58	15.5	3.79	> 24.1	1.45	7.78	1.12	6.36	2	9.4	6.94	> 23.8
CN(Cc1ccc(Cl)cc1)c1ccc(CO)c(Cl)c1	3.57	16.8	5.18	16.9	0.115	0.285	13.4	29.2	0.268	1.68	1.43	12	0.0464	0.179	5.28	42.4	13	27.2	10.8	25.5
CCOc1ccc(-c2cnnn2-c2nonc2-n2cccc2)cc1	0.172	0.774	0.274	1.02	1.52	> 100	0.383	> 78.3	0.597	> 100	0.352	> 100	0.203	0.924	0.309	13.4	0.125	10.1	0.286	0.905
N#Cc1ncc(-c2ccc(C(F)(F)F)cc2)c(NCc2cc(C(F)(F)F)cc(C(F)(F)F)c2)n1	3.37	20.1	5.23	47.3	4.85	> 100	2.98	8.89	5.84	56	3.6	61.9	2.08	7.71	2.36	5.76	3.17	10.1	5.19	> 100
Cc1ccc(NC(=O)Cc2ccc(/C=C/C(=O)c3ncc[nH]3)cc2)cc1	7.68	> 25	12.8	> 25	9.59	> 25	> 25	> 25	7.93	> 25	9.62	> 25	19.9	> 25	5.88	> 25	3.09	12.7	4.56	> 25
CC(=O)N1N=C(c2ccc(Nc3nc(Nc4ccc(Cl)cc4)nc(Nc4ccc(Cl)cc4)n3)cc2)CC1c1ccc([N+](=O)[O-])cc1 (stereo not given)	2.29	9.2	4.3	34.2	12.9	> 82.7	14.7	71.7	12.2	> 75.3	6.1	32.5	1.97	19.6	6.15	24.4	5.72	> 62.4	5.56	> 54.9
CCC1C(=O)OCc2c1cc1n(c2=O)Cc2cc3ccccc3nc2-1 (stereo not given)		> 94.9		> 100		> 100		> 100		> 100		16.3		49		> 36.2		> 100		> 30.9
COC(=O)C1=C(C)NC(C)=C(C(=O)OC)C1/C=C(\Cl)c1ccc(Cl)c(Cl)c1	13.4	27.2	21.1	49	15.8	38.2	17.5	35.9	14.8	30.3	13.7	27.2	11.4	24.1	11.9	38.4	15.4	31.5	16.5	32
O=c1c2c3c(sc2n2c(-c4cc(-c5ccccc5)no4)nnc2n1Cc1ccccc1)CCCC3	4.13	26.7	38.4	> 100	20	58.3	32.1	97.3	21.5	> 82.8	10.2	61.5	36.5	> 100	4.65	29.9	15.8	55.2	19.6	> 93.3
CCCc1cc(O)c2c3c(c(=O)oc2c1)CN(C)CC3	23.1	> 100	85	> 100	> 100	> 100	35.1	> 100	> 100	> 100	> 100	> 100	15.8	98.5	50.2	> 100	87.3	> 100	> 100	> 100
Clc1ccc(/C=C/c2cc(N3CCOCC3)c3cc(Cl)c(Cl)cc3n2)cc1	> 100	> 100	> 100	> 100	> 100	> 100	> 100	> 100	> 100	> 100	> 100	> 100	> 100	> 100	0.339	> 100	> 51.4	> 100	> 100	> 100
C/C=C/C/C=C/CCC(=O)[C@H]1O[C@H]1C(N)=O	5.07	19.1	27	> 72.7	15.1	40.6	13.7	32.9	16.5	30.5	13.4	36.5	17.4	43.7	5.19	25.2	17.2	32	13.7	27.1
COc1cc(C(=O)N2N=C(c3ccc(S(C)(=O)=O)cc3)CC2c2ccco2)cc(OC)c1OC (stereo not given)	4.74	56	4.9	> 100	> 57.3	> 100	5.01	> 100	29	> 100	4.94	> 90.8	5.15	> 100	1.41	4.47	3.51	> 100	7.04	> 78.1
CC(=O)Nc1ccc(/C=C/C(=O)c2ccccc2)cc1	13.9	27.5	27.1	96	27.9	> 100	16.7	36.9	14.6	29.8	3.77	16.2	15.9	36.7	24.8	81.2	4.47	16	3.13	10.6
Nc1ccccc1-c1ccc([N+](=O)[O-])cc1	55.9	> 100	68.3	> 100	33.6	> 100	16.5	> 100	25.9	> 100	1.71	> 100	29	> 100	2.93	26.1	1.59	11.4	73.1	> 100
COc1cc2cc(C(=O)CCC(=O)O)sc2cc1OC	33.4	> 100	62.4	> 100	47.4	> 100	> 100	> 100	> 100	> 100	> 100	> 100	18.7	45.4	28.3	> 100	> 100	> 100	> 100	> 100
CCCCCCc1cc2cc(-c3nc4ccccc4[nH]3)c(=Nc3ccccc3C)oc2cc1O	1.85	3.95	3.57	13.7	2.55	10.3	1.81	3.62	2.27	4.48	2.36	9.74	4.02	16.8	2.13	4.52	3.27	11.7	2.96	7.77
CCC[CH2][Sn]([CH2]CCC)([O]C(=O)c1cc(F)ccc1F)[O][Sn]([CH2]CCC)([CH2]CCC)[O]C(=O)c1cc(F)ccc1F	0.0472	0.191	1.03	2.34	0.354	1.25	0.125	0.339	0.226	0.616	0.129	0.621	0.238	0.631	0.139	2.6	0.999	2.32	0.646	1.92
